Assay results reported in patent publication US8101171B2, “Modulators of the development of mychorrizal fungi with arbuscules, and uses thereof” (priority 2004, dated 2012).
Marks after values point to notes of the source that are not given here.

Legend:
[1] = test system: Gigaspora rosea spores; experiment: Stimulation of the branching of the hyphae of Gigaspora rosea by GR24 (newly formed apexes); assay type: cell-based
Excerpt: The stimulated branching of the hyphae (appearance of new apexes) is the test currently employed to evaluate the stimulating activity of various effectors on endomycorrhizal fungi of the genus Gigaspora. This phenomenon occurs naturally close to the roots of host plants, as well as under the action of root exudates, and is considered to be a preparatory phase to the establishment of symbiosis (Buée et al., Molecular Plant-Microbe Interaction, 2000, 13:693-698). This increase in branching is the result of stimulation of the fungus metabolism and leads to an increase in the points of contact between the fungus and the roots of the plant. Any increase in the branching of the hyphae of the fungus increases mycorrhization.
Measurements of branching (expressed as the number of apexes appearing after stimulation) of the germinative tubes of Gigaspora rosea were carried out in the presence of various concentrations of GR24.
To that end, Gigaspora rosea spores are germinated in gelosed medium M (medium M containing 0.4% (w/v) Phytagel®—SIGMA, France) for 5 days at 30° C. and in an atmosphere enriched with 2% CO2. 10 μl of test agents (in concentrations varying from 10^−8 to 10^−15 M) in solution in 50% methanol are then added to the medium by introduction into a well hollowed out in the gelose.
The controls receive the solvent for the test molecules (10 μl of 50% methanol) under the same conditions.
48 hours after treatment, the apexes formed above the stimulation zone are counted. Two series of experiments with GR24, at different concentrations, were carried out.

[2] = test system: Glomus intraradices spores; experiment: Polarographic measurement of oxygen consumption (cell respiration) of germinating Glomus intraradices spores; assay type: cell-based; details: GR24 0.3 μM final
Experimental: Polarographic measurements of oxygen consumption were carried out on Glomus intraradices spores in germination, in the presence or absence of GR24.
400 spores in 1 ml of medium M are used per test.
In order to stimulate the spores, there are added to each test 10 μl of a 30 μM solution of GR24 in acetone (1%), namely a final concentration of GR24 of 0.3 μM. The controls receive 10 μl of acetone (1%).
The oxygen consumption is measured using an oxygen electrode, known as a Clark electrode (Hansatech Ltd, Hardwick Industrial, Norfolk, United Kingdom), inserted into a Plexiglass chamber. The oxygen electrode is connected to a recorder calibrated between 0 and 100% with atmospheric oxygen.
The spores are introduced into the chamber, and the temperature is maintained at 30° C. by means of a circulating water bath. The rates of oxygen consumption are read directly from the recorder. The measurements of oxygen consumption are carried out over 15 minutes, after 4 hours' stimulation (series 1) and after 5½ hours' stimulation (series 2).
Two independent series of experiments were carried out. For each, the recorded values correspond to the average of 3 tests.
The increase in oxygen consumption is expressed as a percentage relative to that of the control, treated with acetone.

[3] = test system: Medicago truncatula / Gigaspora rosea; experiment: In vitro mycorrhization of Medicago truncatula by Gigaspora rosea (points of contact between fungus and roots); assay type: in vivo; details: GR7 0.1 μM in medium M, 3 weeks, 8 plants; control (methanol) 2.2; P = 0.02 Mann-Whitney
Experimental: Measurements of the number of points of contact established between the fungus and the roots during in vitro mycorrhization experiments were carried out. Medicago truncatula plants were cultivated in vitro in the presence of Gigaspora rosea spores, on medium M enriched with GR7.
For the tests, medium M prepared as above is enriched with GR7 to give a final concentration of 0.1 μM. The controls are carried out with medium M to which methanol is added to give a final concentration of 0.1%. The medium is poured into square Petri dishes (100×100). Three control dishes and three test dishes are prepared. The Gigaspora rosea spores are pre-germinated in those dishes (25 per dish) in an oven at 30° C., with 2% CO2, for 6 days. The Medicago truncatula seeds are sterilized with Javel water at 8 degrees chlorimetric for 5 minutes. After rinsing with sterile distilled water, they are germinated on a medium composed of bacteriological agar with 1 μM gibberellin. After 24 hours at 4° C., they are transferred into a chamber at 25° C. for 24 hours. Eighteen plantlets so prepared are then distributed randomly in the six experimental dishes containing the spores in the process of germinating. […]
The number of points of contact established between the fungus and the roots is counted plant by plant after observation under a microscope.

[4] = test system: Gigaspora rosea spores; experiment: Stimulation of hypha branching and elongation of Gigaspora rosea by GR7; assay type: cell-based
Experimental: Gigaspora rosea spores are germinated in gelosed medium M for 5 days at 30° C. and in an atmosphere enriched with 2% CO2. 10 μl of test agent solution are then added to the medium by introduction into a well hollowed out in the gelose, starting from a solution having a concentration of test agent varying from 10^−5 to 10^−11 M. The controls receive only the solvent for the test agents (10 μl of 50% methanol) under the same conditions.
The apexes formed are counted after 48 hours' treatment. In addition, the elongation activity is evaluated by measuring the number of cm formed before and after treatment. Two series of experiments, with different concentrations of GR7, were carried out.

[5] = test system: Gigaspora rosea; experiment: Oxygraph measurement of cell respiration of Gigaspora rosea; assay type: cell-based; details: for % stimulation (respiration, average of 3 tests): GR7 0.1 μM final
Experimental: The control is carried out using 10 μl of methanol/water (v/v) per ml of medium.
Two independent series of experiments were carried out, after 4 hours' stimulation (series 1) and after 5½ hours' stimulation (series 2).
For each, the values recorded correspond to the averages of 3 tests.

[6] = Series 1: after 4 hours' stimulation
[7] = Series 2: after 5½ hours' stimulation
[8] = GR7 10^−5 M, Series 1, relative to control
[9] = GR7 10^−5 M, Series 2, relative to control
[10] = GR7 10^−7 M, Series 1, relative to control
[11] = GR7 10^−7 M, Series 2, relative to control
[12] = GR7 10^−9 M, Series 1, relative to control
[13] = GR7 10^−9 M, Series 2, relative to control
[14] = GR7 10^−11 M, Series 1, relative to control
[15] = GR7 10^−11 M, Series 2, relative to control

Q: How did the Apex/spore ([1]; GR24 10^−8 M, Series 1, 48 hours after treatment) turn out when CC1=CC(O/C=C2/C(=O)OC3c4ccccc4CC23)OC1=O (stereo not drawn) [GR24] was run?
A: The Apex/spore was 16.3.

Q: What about the “Number of newly formed apexes” value ([1]; GR24 10^−8 M, Series 1, 48 hours after treatment, 4 spores) of the same compound?
A: The value was 65.

Q: And the Stimulation factor ([1]; GR24 10^−8 M, Series 1, relative to control)?
A: The Stimulation factor was 5.4.

Q: And the Apex/spore ([1]; GR24 10^−8 M, Series 2, 48 hours after treatment)?
A: Its Apex/spore is 14.0.

Q: What about the “Number of newly formed apexes” value ([1]; GR24 10^−8 M, Series 2, 48 hours after treatment, 1 spore) of the same compound?
A: Its value is 14.

Q: And the Stimulation factor ([1]; GR24 10^−8 M, Series 2, relative to control)?
A: The Stimulation factor was 4.0.

Q: And the Apex/spore ([1]; GR24 10^−10 M, Series 1, 48 hours after treatment)?
A: The Apex/spore was 15.0.

Q: What about the “Number of newly formed apexes” value ([1]; GR24 10^−10 M, Series 1, 48 hours after treatment, 3 spores) of the same compound?
A: The value was 45.

Q: And the Stimulation factor ([1]; GR24 10^−10 M, Series 1, relative to control)?
A: The Stimulation factor was 5.0.

Q: And the Apex/spore ([1]; GR24 10^−10 M, Series 2, 48 hours after treatment)?
A: The Apex/spore was 13.3.

Q: And the “Number of newly formed apexes” value ([1]; GR24 10^−10 M, Series 2, 48 hours after treatment, 3 spores)?
A: Its value is 40.

Q: And the Stimulation factor ([1]; GR24 10^−10 M, Series 2, relative to control)?
A: Its Stimulation factor is 3.8.

Q: And the Apex/spore ([1]; GR24 10^−12 M, Series 1, 48 hours after treatment)?
A: Its Apex/spore is 9.0.

Q: What about the “Number of newly formed apexes” value ([1]; GR24 10^−12 M, Series 1, 48 hours after treatment, 4 spores) of the same compound?
A: The value was 36.

Q: What about the Stimulation factor ([1]; GR24 10^−12 M, Series 1, relative to control) of the same compound?
A: The Stimulation factor was 3.0.

Q: What about the Apex/spore ([1]; GR24 10^−12 M, Series 2, 48 hours after treatment) of the same compound?
A: The Apex/spore was 8.5.

Q: And the “Number of newly formed apexes” value ([1]; GR24 10^−12 M, Series 2, 48 hours after treatment, 4 spores)?
A: The value was 34.

Q: What about the Stimulation factor ([1]; GR24 10^−12 M, Series 2, relative to control) of the same compound?
A: The Stimulation factor was 2.4.

Q: What about the Apex/spore ([1]; GR24 10^−15 M, Series 1, 48 hours after treatment) of the same compound?
A: Its Apex/spore is 3.8.

Q: What about the “Number of newly formed apexes” value ([1]; GR24 10^−15 M, Series 1, 48 hours after treatment, 4 spores) of the same compound?
A: Its value is 15.

Q: And the Stimulation factor ([1]; GR24 10^−15 M, Series 1, relative to control)?
A: The Stimulation factor was 1.3.

Q: What about the Apex/spore ([1]; GR24 10^−15 M, Series 2, 48 hours after treatment) of the same compound?
A: The Apex/spore was 8.5.

Q: And the “Number of newly formed apexes” value ([1]; GR24 10^−15 M, Series 2, 48 hours after treatment, 2 spores)?
A: The value was 17.

Q: And the Stimulation factor ([1]; GR24 10^−15 M, Series 2, relative to control)?
A: Its Stimulation factor is 2.4.

Q: And the “Stimulating effect on branching” value ([1]; doses lower than picomolar)?
A: The value was “a clear stimulating effect is still observed”.

Q: What about the “Stimulation of branching (factor)” value ([1]; submicromolar doses of GR24) of the same compound?
A: Its value is 5.

Q: And the “% stimulation (increase in oxygen consumption relative to control, average of 3 tests)” value [2, 6]?
A: The value was 29.0%.

Q: And the “% stimulation (increase in oxygen consumption relative to control, average of 3 tests)” value [2, 7]?
A: The value was 76.6%.

Q: Which results are given for CC1=CC(O/C=C2/C(=O)OC3CC=CC23)OC1=O (stereo not drawn) [GR7]?
A: Average points of contact (fungus-roots, per plant) [3]: 7.75*; cm newly formed/spore ([4]; GR7 10^−5 M, Series 1): 4.88 cm; Number of newly formed apexes ([4]; GR7 10^−5 M, Series 1, after 48 hours' treatment): 9.3; Branching stimulation ratio [4, 8]: 5.31; Growth stimulation ratio [4, 8]: 4.44; cm newly formed/spore ([4]; GR7 10^−5 M, Series 2): 6.5 cm; Number of newly formed apexes ([4]; GR7 10^−5 M, Series 2, after 48 hours' treatment): 14.25; Branching stimulation ratio [4, 9]: 6.59; Growth stimulation ratio [4, 9]: 2.60; cm newly formed/spore ([4]; GR7 10^−7 M, Series 1): 4.65 cm; Number of newly formed apexes ([4]; GR7 10^−7 M, Series 1, after 48 hours' treatment): 8.75; Branching stimulation ratio [4, 10]: 5; Growth stimulation ratio [4, 10]: 4.23; cm newly formed/spore ([4]; GR7 10^−7 M, Series 2): 5.09 cm; Number of newly formed apexes ([4]; GR7 10^−7 M, Series 2, after 48 hours' treatment): 10.42; Branching stimulation ratio [4, 11]: 4.82; Growth stimulation ratio [4, 11]: 2.04; cm newly formed/spore ([4]; GR7 10^−9 M, Series 1): 2.62 cm; Number of newly formed apexes ([4]; GR7 10^−9 M, Series 1, after 48 hours' treatment): 8; Branching stimulation ratio [4, 12]: 4.57; Growth stimulation ratio [4, 12]: 2.38; cm newly formed/spore ([4]; GR7 10^−9 M, Series 2): 4.99 cm; Number of newly formed apexes ([4]; GR7 10^−9 M, Series 2, after 48 hours' treatment): 6.16; Branching stimulation ratio [4, 13]: 2.85; Growth stimulation ratio [4, 13]: 2.00; cm newly formed/spore ([4]; GR7 10^−11 M, Series 1): 2.65 cm; Number of newly formed apexes ([4]; GR7 10^−11 M, Series 1, after 48 hours' treatment): 5.16; Branching stimulation ratio [4, 14]: 2.94; Growth stimulation ratio [4, 14]: 2.41; cm newly formed/spore ([4]; GR7 10^−11 M, Series 2): 2.23 cm; Number of newly formed apexes ([4]; GR7 10^−11 M, Series 2, after 48 hours' treatment): 2.66; Branching stimulation ratio [4, 15]: 1.23; Growth stimulation ratio [4, 15]: 0.89; Activity on branching (number of newly formed apexes) ([4]; doses of the nanomolar order): significantly active; Activity on cell elongation ([4]; doses of the nanomolar order): significantly active; % stimulation (respiration, average of 3 tests) [5, 6]: 24.0%; % stimulation (respiration, average of 3 tests) [5, 7]: 33.6%; Activity on the respiration of Gigaspora rosea ([5]; final concentration 0.1 μM, after 5 hours' stimulation): active
